Experimental data: patent US20110045101A1, “FUNGICIDAL SUBSTITUTED AZOLES” (E.I. Du Pont De Nemours and Company, priority 2009, published 2011)
Marks after values point to notes of the source that are not given here.

Columns and labels:
Assay type in all cases: in vivo
Conditions in all cases: 100 = 100% disease control
[1] = test system: Puccinia recondita f. sp. tritici; assay: Test H: wheat leaf rust, test suspension sprayed after inoculation of wheat seedlings, visual disease rating
Summary of the method: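 Wheat seedlings inoculated with P. recondita spores, held 24 h saturated at 20 °C, then 2 days in growth chamber at 20 °C; compound suspension (acetone/water with Trem 014) sprayed to run-off afterwards. Rated visually; 200 ppm (≈500 g/ha) unless marked *, which denotes 40 ppm.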

Septoria tritici = assay: Test G: wheat leaf blotch on wheat seedlings, sprayed the day before inoculation, visual disease rating
Summary of the method: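 Wheat seedlings were sprayed with compound suspensions, 200 ppm unless starred (40 ppm). After next-day spore inoculation, plants spent 48 h saturated at 24° C, then 19 days at 20° C, when disease was rated visually.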

[2] = test system: Puccinia recondita f. sp. tritici; assay: Test I: wheat leaf rust on wheat seedlings, sprayed the day before inoculation, visual disease rating
Summary of the method: (§1)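 Plants received a run-off spray at 200 ppm (equivalent to 500 g/ha) or, for starred values, 40 ppm. Formulation used acetone at 3% of volume in a 50/50 acetone/water mix carrying 250 ppm Trem® 014.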

Alternaria solani = assay: Test D: tomato early blight, sprayed the day before inoculation, visual disease rating
Summary of the method: as §1

Septoria nodorum = assay: Test F: wheat glume blotch on wheat seedlings, sprayed the day before inoculation, visual disease rating
Summary of the method: as §1

[3] = test system: Erysiphe graminis f. sp. tritici; assay: Test J: wheat powdery mildew on wheat seedlings, sprayed the day before inoculation, visual disease rating
Summary of the method: as §1

Botrytis cinerea = assay: Test C: tomato Botrytis on tomato seedlings, sprayed the day before inoculation, visual disease rating
Summary of the method: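 Rate: 200 ppm sprayed to run-off, corresponding to 500 g/ha; flagged values used 40 ppm. Vehicle was aqueous acetone (1:1) plus 250 ppm surfactant, compounds predissolved in acetone at 3% of volume. Plants were tomato seedlings.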

[4] = 200 ppm, 0 = no control relative to controls

Structure (SMILES)	Test H disease control rating [1, 4] [%]	Test G disease control rating (Septoria tritici; [4]) [%]	Test I disease control rating [2, 4] [%]	Test D disease control rating (Alternaria solani; [4]) [%]	Test F disease control rating (Septoria nodorum; [4]) [%]	Test J disease control rating [3, 4] [%]	Test C disease control rating (Botrytis cinerea; [4]) [%]	further results
COc1cc(F)c(-c2c(Br)nn(C)c2-c2ccc(Cl)cc2)c(F)c1 [compound 424]	0	100	94	100	99	100	100	
COc1cc(F)c(-c2c(Cl)nc(Cl)n2-c2cccnc2OC)c(F)c1 [compound 676]	99	99	100	99	99	98	100	
Cc1ccc(-n2c(Cl)nc(Cl)c2-c2c(F)cccc2F)nc1 [compound 577]	97	100	100	100	87	100	100	
COc1ccc(-n2c(Br)nc(C)c2-c2c(F)cccc2F)cn1 [compound 719]	99	99	100	100	98	100	99	
COc1cc(F)c(-c2c(Cl)nc(Cl)n2-c2ccc(OC)c(Cl)c2)c(F)c1 [compound 646]								Test H disease control rating ([1]; 40 ppm (marked *)): 0* %; Test G disease control rating (Septoria tritici; 40 ppm (marked *)): 97* %; Test I disease control rating ([2]; 40 ppm (marked *)): 92* %; Test D disease control rating (Alternaria solani; 40 ppm (marked *)): 47* %; Test F disease control rating (Septoria nodorum; 40 ppm (marked *)): 0* %; Test J disease control rating ([3]; 40 ppm (marked *)): 35* %; Test C disease control rating (Botrytis cinerea; 40 ppm (marked *)): 93* %
Cc1nc(Cl)c(-c2c(F)cc(F)cc2F)n1-c1cccc(OC(F)(F)F)c1 [compound 611]	0	81	16	66	0	57	91	
COc1cc(F)c(-c2c(Cl)nc(SC)n2-c2ccc(C)cc2)c(F)c1 [compound 695]	97	99	99	99	97	96	100	
COc1ccc(F)c(-c2c(Cl)nc(C)n2Cc2ccc(Cl)cc2)c1F [compound 294]								Test H disease control rating ([1]; 200 ppm, 0 = no control): 11%; Test G disease control rating (Septoria tritici; 200 ppm, 0 = no control): 96%; Test I disease control rating ([2]; 200 ppm, 0 = no control): 98%; Test D disease control rating (Alternaria solani; 200 ppm, 0 = no control): 100%; Test F disease control rating (Septoria nodorum; 200 ppm, 0 = no control): 98%; Test J disease control rating ([3]; 200 ppm, 0 = no control): 97%; Test C disease control rating (Botrytis cinerea; 200 ppm, 0 = no control): 99%
Cc1nc(Cl)n(-c2ccc(Cl)c(F)c2)c1-c1cccnc1Cl [compound 360]	9	95	99	99	0	98	100	
N#Cc1ccc(F)c(-c2c(Cl)nc(Cl)n2-c2ccc(Cl)nc2)c1F [compound 691]								Test H disease control rating ([1]; 40 ppm (marked *)): 39* %; Test G disease control rating (Septoria tritici; 40 ppm (marked *)): 95* %; Test I disease control rating ([2]; 40 ppm (marked *)): 82* %; Test D disease control rating (Alternaria solani; 40 ppm (marked *)): 99* %; Test F disease control rating (Septoria nodorum; 40 ppm (marked *)): 51* %; Test J disease control rating ([3]; 40 ppm (marked *)): 64* %; Test C disease control rating (Botrytis cinerea; 40 ppm (marked *)): 99* %
Fc1cccc(F)c1-c1c(Br)nc(Br)n1-c1cccnc1Cl [compound 618]	99	98	99	85	0	97	98	
COc1ccc(F)c(-c2c(Cl)nc(Cl)n2-c2ccc(Cl)cc2)c1Cl [compound 481]	0	95	97	100	99	100	100	
COc1cc(F)c(-c2c(Cl)nc(Br)n2-c2ccc(OC(F)(F)F)cc2)c(F)c1 [compound 548]	0	96	99	100	94	100	98	
Fc1cccc(-n2cnc(Cl)c2-c2c(F)ccc(F)c2F)c1 [compound 364]	0	58	98	100	0	83	100	
Fc1ccc(-n2c(Br)nc(Cl)c2-c2ccc(Cl)cc2)c(Cl)c1 [compound 329]	0	94	90	99	0	99	99	
COC(=O)c1ccc(-n2c(Cl)nc(Cl)c2-c2c(F)cccc2F)cc1 [compound 649]								Test H disease control rating ([1]; 40 ppm (marked *)): 0* %; Test G disease control rating (Septoria tritici; 40 ppm (marked *)): 97* %; Test I disease control rating ([2]; 40 ppm (marked *)): 61* %; Test D disease control rating (Alternaria solani; 40 ppm (marked *)): 0* %; Test F disease control rating (Septoria nodorum; 40 ppm (marked *)): 0* %; Test J disease control rating ([3]; 40 ppm (marked *)): 0* %; Test C disease control rating (Botrytis cinerea; 40 ppm (marked *)): 0* %
COc1cc(F)c(-n2cnc(C)c2-c2cccc(F)c2)c(F)c1 [compound 683]								Test H disease control rating ([1]; 40 ppm (marked *)): 8* %; Test G disease control rating (Septoria tritici; 40 ppm (marked *)): 67* %; Test I disease control rating ([2]; 40 ppm (marked *)): 0* %; Test D disease control rating (Alternaria solani; 40 ppm (marked *)): 97* %; Test F disease control rating (Septoria nodorum; 40 ppm (marked *)): 0* %; Test J disease control rating ([3]; 40 ppm (marked *)): 98* %; Test C disease control rating (Botrytis cinerea; 40 ppm (marked *)): 100* %
COc1cc(F)c(-c2c(Cl)nc(Br)n2Cc2ccc(Cl)nc2)c(F)c1 [compound 670]	0	98	98	100	100	94	100	
Fc1cc(F)c(-c2c(Cl)nc(Br)n2-c2cccc(OC(F)F)c2)c(F)c1 [compound 603]	98	99	100	100	99	100	99	
COc1ccc(F)c(-c2c(Cl)nc(Cl)n2-c2ccc(Br)cc2)c1F [compound 562]	0	100	99	100	99	100	100	
